Results taken from PMC11423184 (Advanced Science, 2024).

Target: T1, SWELL1 channel (VRAC; SWELL1 = LRRC8A) (Mus musculus, UniProt Q80WG5)
T1 construct: endogenous VRAC in mouse primary astrocytes and hippocampal CA1 neurons, full length; neuronal current absent in NEX-cKO
T1 sequence (Q80WG5 1-810): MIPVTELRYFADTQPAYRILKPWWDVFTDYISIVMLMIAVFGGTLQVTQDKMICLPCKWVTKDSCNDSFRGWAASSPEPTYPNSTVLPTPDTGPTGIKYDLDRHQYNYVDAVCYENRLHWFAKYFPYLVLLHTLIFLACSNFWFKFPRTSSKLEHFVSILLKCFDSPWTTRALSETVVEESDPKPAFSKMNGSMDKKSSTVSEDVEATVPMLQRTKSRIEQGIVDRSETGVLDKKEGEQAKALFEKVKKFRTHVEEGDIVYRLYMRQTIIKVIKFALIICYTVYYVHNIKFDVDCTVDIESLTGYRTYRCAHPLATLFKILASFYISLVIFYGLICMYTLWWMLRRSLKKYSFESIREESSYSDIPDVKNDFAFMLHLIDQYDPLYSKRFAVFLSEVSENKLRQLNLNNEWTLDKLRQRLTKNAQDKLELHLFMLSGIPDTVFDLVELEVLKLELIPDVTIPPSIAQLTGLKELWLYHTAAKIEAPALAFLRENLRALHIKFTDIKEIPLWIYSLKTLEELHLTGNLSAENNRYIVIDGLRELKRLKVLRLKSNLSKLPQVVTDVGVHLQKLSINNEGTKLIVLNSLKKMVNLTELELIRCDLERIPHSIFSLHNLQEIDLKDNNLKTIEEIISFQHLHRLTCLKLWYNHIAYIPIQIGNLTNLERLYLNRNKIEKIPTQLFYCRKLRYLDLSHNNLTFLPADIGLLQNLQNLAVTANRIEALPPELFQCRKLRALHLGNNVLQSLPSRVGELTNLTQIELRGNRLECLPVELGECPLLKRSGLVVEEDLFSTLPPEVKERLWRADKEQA
Assay: whole-cell patch clamp, primary astrocytes
Type: cell-based
Conditions: hypotonicity-induced SWELL1 currents; concentration not given

For `CC(=O)CC(c1ccccc1)c1c(O)c2ccccc2oc1=O` (stereo not shown) [Warfarin], the “whole-cell patch clamp, primary astrocytes” value was “Warfarin, another anticoagulant of the same family, failed to inhibit hypotonicity‐induced SWELL1 currents”.
